One assay has as its system AGEs formation. As to the kind of experiment: AGEs formation inhibition assay (BSA with fructose and glucose, fluorescence). The settings on record: mean ± SD (n = 3); for IC50: isolated compounds, tested 10–500 µM. In kind it is biochemical. How it is done: In accordance with a reported protocol with slight modifications, a reaction mixture of bovine serum albumin (10 mg/mL, Sigma Aldrich) in 50 mM phosphate buffer (pH 7.4) with 0.02% sodium azide was added to 0.4M fructose and glucose. The reaction mixture (270 μL) was added to 30 μL of sequentially diluted compounds or the positive control, AMG. Each sample of extract, hexane, water fractions, EAF, NBF, and compounds 1–10 were dissolved in DMSO for the AGEs assay at five different final concentrations (10–500 µg/mL for extracts and fractions or 10–500 µM for isolated constituents). After 48 h of incubation at 60 °C, 200 μL of the reaction products was taken to 96-well plates and its fluorescence was measured using a spectrofluorometric detector (FlexStation 3, HTRF® Chemistry) at an excitation wavelength of 350 nm and an emission wavelength of 450 nm. DMSO was used as negative control instead of the sample. The IC50 values and 95% confidence intervals were obtained via regression analysis. The percentage of inhibition (%) was calculated by the following equation, where Ac stands for the fluorescence of the control and As stands for the fluorescence of the sample: (1) Inhibition(%)=Ac−As/Ac×100

Assay [1] deals with T1, rat lens aldose reductase (Rattus norvegicus, UniProt P07943).
T1 construct: The rat lenses were homogenized and centrifuged at 10,000 rpm (4 °C, 20 min) and the supernatant was used as an enzyme source; from tissue; host or cells: rat lens (Sprague-Dawley)
Description: AR assay (rat lens homogenate, decrease in β-NADPH absorption). In kind it is biochemical, Sprague-Dawley rats. The settings on record: mean ± SD (n = 3); for IC50: isolated compounds, tested 0.1–100 µM.
Description: Lenses (one lens per 0.5 mL sodium buffer) were removed from Sprague-Dawley rats (weight 250–280 g) and stored in a deep freezer at −80 °C until use. The rat lenses were homogenized and centrifuged at 10,000 rpm (4 °C, 20 min) and the supernatant was used as an enzyme source [65]. AR activity was spectrophotometrically calculated by measuring the decrease in β-NADPH absorption rate at 340 nm for a 4 min period at 25 °C in a 96-well plate using the same detector device used in the AGEs assay. The assay mixture (300 µL) contained 0.1 M potassium phosphate buffer (pH 7.0), 0.1 M sodium phosphate buffer (pH 6.2), 1.6 mM β-NADPH, and test samples with 0.025 M of DL-glyceraldehyde as substrate. […] IC50 values were determined using the least-squares regression line of log concentration plotted against residual activity. TMG, a typical AR inhibitor, was used as the positive control. A negative control was fulfilled by using DMSO instead of the sample.

Assay [2] addresses T2, porcine pancreatic lipase (Sus scrofa, UniProt P00591).
T2 construct: purchased Sigma-Aldrich Co. Type II
T2 sequence (P00591 1-450): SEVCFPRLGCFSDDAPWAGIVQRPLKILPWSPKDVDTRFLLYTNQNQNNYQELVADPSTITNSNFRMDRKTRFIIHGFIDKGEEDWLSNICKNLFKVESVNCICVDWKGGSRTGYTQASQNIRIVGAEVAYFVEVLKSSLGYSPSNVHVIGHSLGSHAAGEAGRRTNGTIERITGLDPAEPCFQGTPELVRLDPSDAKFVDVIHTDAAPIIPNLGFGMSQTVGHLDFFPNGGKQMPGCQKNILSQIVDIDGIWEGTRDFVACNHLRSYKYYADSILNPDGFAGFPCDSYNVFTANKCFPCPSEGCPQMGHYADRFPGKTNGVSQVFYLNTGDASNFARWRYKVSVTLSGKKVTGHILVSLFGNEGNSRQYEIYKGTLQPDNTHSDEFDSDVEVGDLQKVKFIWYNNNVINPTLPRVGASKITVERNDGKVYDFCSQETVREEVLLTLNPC
As to the kind of experiment: Lipase inhibition assay (p-NPB). In kind it is biochemical. The settings on record: isolated compounds; tested 10–2000 µM; mean ± SD (n = 3).
Description: Lipase inhibition activity was evaluated according to a slightly modified method of de Camargo et al. [66]. The substrate used was p-nitrophenyl butyrate (p-NPB), which is converted to p-nitro-phenol in the presence of lipase, giving a yellow color that can be used to quantify the extent of the reaction. Type II porcine pancreatic lipase was used at a concentration of 5 mg/mL. The substrate (p-NPB) was prepared in DMSO to achieve a concentration of 5 mM. Tested samples, dissolved in 10% DMSO at five different final concentrations (0.05–5.0 mg/mL for extracts and fractions or 10–2000 µM for isolated constituents), were mixed with Tris–HCl buffer (pH 7.4), and enzyme solution, with a total reaction mixture volume of 840 μL. After incubation at 37 °C for 15 min, p-NPB was added, and the solution was further incubated at 37 °C for 25 min. Then, the mixture was cooled for 2 min, and 200 μL was transferred to a 96-well plate. Absorbance was measured using the SUNRISE microplate reader. Blanks, in which enzymes were replaced with Tris–HCl buffer, were prepared for background corrections. […] The inhibition rate of lipase activity was also calculated using Equation (1).

The target in assay [3] is α-glucosidase from Saccharomyces cerevisiae. Description: α-Glucosidase inhibition assay (p-NPG). In kind it is biochemical. The settings on record: isolated compounds; tested 1–1000 µM; mean ± SD (n = 3).
Description: This enzyme inhibition assay was carried out by using a 96-well microplate reader and a spectrophotometer. The reaction volume (60 μL) contained 100 mM phosphate buffer (pH 6.8), 2.5 mM p-nitrophenyl α-D-glucopyranoside (p-NPG), and sample dissolved in 10% DMSO at five different final concentrations (5–100 µg/mL for extracts and fractions or 1–1000 µM for isolated constituents). A chromogenic substance was used for quantification purposes. The mixture solution was added to each well, then, 20 μL of 10 mM phosphate buffer (pH 6.8) containing 0.2 U/mL α-glucosidase was added. The plate was incubated at 37 °C for 15 min, then, 80 μL of 0.2 mol/L sodium carbonate solution was added to stop the reaction. Absorbance was measured at 405 nm immediately after reaction cessation by using a SUNRISE microplate reader (Tecan Austria GmbH, Grodig, Austria). The negative control contained the same reaction mixture with phosphate buffer substituted for the sample solution. […] The inhibition rate of α-glucosidase activity was calculated using the same equation (1) used for inhibition of AGEs formation, but absorbance was measured instead of fluorescence.
[4] abbreviates: ND: no detection within test concentration.
The mark [5] stands for this setting: 70% MeOH stem extracts of Smilacaceae plants.

The term IC50 denotes the concentration that gives 50% inhibition. On to `O=C(/C=C/c1ccc(O)c(O)c1)OC1CC(O)(C(=O)O)CC(O)C1O` (stereo not drawn) [3-O-Caffeoylquinic acid (3), 3-O-Caffeoylquinic acid], for which the half-inhibitory concentration (IC50) in the assay with AGEs formation was 80.5 ± 5.5 µM; in assay [1] (setting [4]), 0.6 ± 0.03 µM; in assay [2] it was above 1000 µM.

Consider `O=C(/C=C/c1ccc(O)c(O)c1)OC1C(O)CC(O)(C(=O)O)CC1O` (stereo not drawn) [4-O-Caffeoylquinic acid (4), 4-O-Caffeoylquinic acid], for which the IC50 in assay [3] was 736 ± 15 µM; in the assay on AGEs formation, 74.1 ± 3.1 µM; in assay [2], above 1000 µM.

On to `O=C(/C=C/c1ccc(O)c(O)c1)OC1CC(O)(C(=O)O)CC(O)C1O` (stereo not drawn) [5-O-Caffeoylquinic acid (2), 5-O-Caffeoylquinic acid], for which the 50% inhibitory concentration (IC50) was 215 ± 18 µM with AGEs formation, 87.5 ± 1.6 µM in assay [1] (setting [4]) and 474 ± 35 µM in assay [2].

With `N=C(N)NN` [AMG, aminoguanidine, reference compound], the “AGEs IC50” value was determined as 54.8 ± 2.1 µg/mL in the assay on AGEs formation (setting [5]); 54.8 ± 2.1 µg/mL in the assay on AGEs formation (SCS extract and solvent fractions, tested 10–500 µg/mL, ND: no detection within test concentration). The molecule further yielded an IC50 in the assay on AGEs formation of 515 ± 33 µM.

Molecule `C[C@@H]1O[C@@H](Oc2c(-c3ccc(O)cc3)oc3cc(O)cc(O)c3c2=O)[C@H](O)[C@H](O)[C@H]1O` [Afzelin (7), Kaempferol 3-O-α-L-rhamnoside] returned an IC50 with AGEs formation of 75.4 ± 3.8 µM.

For `COc1cc(/C=C/C(=O)OC[C@H]2O[C@@](CO)(O[C@H]3O[C@H](CO)[C@@H](O)[C@H](O)[C@H]3O)[C@@H](OC(=O)/C=C/c3ccc(O)c(OC)c3)[C@@H]2O)ccc1O` [Helonioside A (9)], the IC50 is 154 ± 4 µM in assay [3], 227 ± 16 µM in the assay with AGEs formation, 34.5 ± 0.1 µM in assay [1] (setting [4]) and above 1000 µM in assay [2].

Take `CC1OC(Oc2c(O)cc(O)c3c(=O)cc(-c4ccc(O)cc4)oc23)C(O)C(O)C1O` (stereo not drawn) [Isoscutellarein-8-O-rhamnoside (10), Isoscutellarein 8-O-rhamnoside]: the 50% inhibitory concentration (IC50) in assay [3] came to 45.1 ± 2.6 µM; in the assay on AGEs formation, 440 ± 17 µM; in assay [1] (setting [4]), 17 ± 3.6 µM; in assay [2], 101 ± 18 µM.

In the case of `CC1OC(Oc2cc(O)c3c(=O)c(OC4OC(CO)C(O)C(O)C4O)c(-c4ccc(O)cc4)oc3c2)C(O)C(O)C1O` [Kaempferol 3-O-β-D-glucopyranosyl-7-O-α-L-rhamnopyranoside], the IC50 in assay [3] is 609 ± 32 µM; in the assay with AGEs formation, 193 ± 9 µM; in assay [1] (setting [4]), 9.38 ± 1.46 µM; in assay [2], above 1000 µM.

Regarding `O=C(O)c1ccc(O)c(O)c1` [Protocatechuic acid (1), Protocatechuic acid], the results for the half-inhibitory concentration (IC50) (in assay [3]; in the assay on AGEs formation; in assay [2]) were 176 ± 7 µM, 418 ± 10 µM and 22.9 ± 0.8 µM, respectively.

Take `C[C@@H]1O[C@@H](Oc2c(-c3ccc(O)c(O)c3)oc3cc(O)cc(O)c3c2=O)[C@H](O)[C@H](O)[C@H]1O` [Quercitrin (6), Quercetin 3-O-α-L-rhamnoside]: the IC50 in assay [3] was 135 ± 13 µM; in the assay on AGEs formation, 58 ± 2.5 µM; in assay [1] (setting [4]), 0.56 ± 0.14 µM; in assay [2] it was 96.7 ± 7 µM.

`O=C(O)CC1(CC(=O)O)CCCC1` [TMG, 3,3′-tetramethyleneglutaric acid, reference compound]: the “Aldose Reductase IC50” value in assay [1] (setting [5]) is 1.30 ± 0.10 µg/mL; in assay [1] (SCS extract and solvent fractions, tested 10–100 µg/mL, ND: no detection within test concentration), 1.30 ± 0.10 µg/mL. In addition, the IC50 in assay [1] (setting [4]) was 6.97 ± 0.56 µM.

Regarding `Oc1ccc(/C=C/c2cc(O)cc(O)c2)cc1` [trans-Resveratrol (8), 3,5,4′-Trihydroxy-trans-stilbene], the 50% inhibitory concentration (IC50) in assay [3] came out at 5.97 ± 0.2 µM; with AGEs formation, 148 ± 14 µM; in assay [1] (setting [4]), 60.5 ± 16.8 µM; in assay [2], 61.2 ± 11.7 µM.

Values taken from article PMC6155388, “Chemical Constituents of Smilax china L. Stems and Their Inhibitory Activities against Glycation, Aldose Reductase, α-Glucosidase, and Lipase” (Molecules : A Journal of Synthetic Chemistry and Natural …, 2017).
